This experiment can be described thus: Animal Experiment 2: whole cholesterol in hypercholesterolemia rats (Zurkowski's method). In kind it is in vivo, rats of Wistar descent. Conditions: male Wistar rats on cholesterol feed, five days; composite oral 75 μg monoiodohistidine/day/rat, contrast groups equal iodine amount; control group 335.

Description: A test groups consisted of ten heads of male rats of Wistar descent, which weighed about 120 g. The test group was fed in a cage at 24±1° C. of temperature and at 50 to 60% of humidity. […] The composite to be tested was made from the yolk of egg of the egg-laying hens to which calcium iodate was fed. The composite was dissolved in distilled water, and then orally dosed to the rats by means of a stomach probe at the rate of 75 μg of monoiodohistidine per day per rat for five days in parallel with feeding of the cholesterol containing feed. The rats were caused to fast for a night after composite dosing was finished, and next morning blood was taken from fundus of the rat's eyes in order to measure the amount of whole cholesterol by Zurkowski's method.
A control group, a contrast group (1) and a contrast group (2) equally consisted of rats which got hypercholesterolemia by the same process as mentioned in the test group. While potassium iodide was dosed to the contrast group (1) so that the iodine amount would be equal to that of the test group, iodo-lecithin was dosed to the contrast group (2) so that the iodine amount would be equal to that of the test group. On the other hand, no iodine agent or compound was dosed to the control group. And, as to the rats of these groups, the amount of whole cholesterol was measured by the same method as mentioned in the test group.

iodo-lecithin: the “Amount of whole Cholesterol” value is 325 mg/dL.

In the case of `[I-].[K+]` [potassium iodide], the “Amount of whole Cholesterol” value amounted to 323 mg/dL.

For the origin of these results see patent publication US4410541A, “Composite for improving lipid metabolism” (Nihon Nosan Kogyo K.K., priority 1981, dated 1983).
